Experimental data: patent publication US8399214B2 (Evonik Degussa GmbH, priority 2005, dated 2013)
Values joined by “and” are separate entries in the source; they are usually repeats but may differ in a detail not shown here. Equal values may be shown once. Read-outs that look alike come from different tables or passages of the source.

How the values were obtained:
[1] = test system: C. glutamicum M2014 (parent); test: Test tube growth in methionine-free medium, DMDS added directly; conditions: M2014; MF + Met 40 mg/l; 36 hours at 30° C.
Text: (§1) M2014 was transformed with plasmid pOM86 (FIG. 9) (SEQ ID NO:8) to yield a “Campbell in” strain. The “Campbell in” strain was then “Cambelled out” to yield a “Campbell out” strain named OM63.

[2] = test system: C. glutamicum OM63 (ΔmetF); format: cell-based; conditions: MF + Met 40 mg/l, 36 hours at 30° C.
Text: as §1

C. glutamicum M2014 [3] = test: Test tube growth in methionine-free medium with Amberlite XAD4 as DMDS delivery system; conditions: M2014, XAD4
Protocol: (§2) To this end, test tube experiments using 5 ml of medium were performed on OM63 and M2014.
(§3) To each test tube 100 μl of a sterile suspension of XAD4 in water (50% v/v) was added.

[4] = test system: C. glutamicum OM63 (ΔmetF)
Protocol: as §2, §3

[5] = test system: C. glutamicum OM101C (ΔmetF, ΔmetB); format: cell-based; conditions: met 100 mg/l, XAD4, 24 hours at 30° C.
Protocol: as §3

[6] = test system: C. glutamicum OM246C (ΔmetE, ΔmetH); format: cell-based; conditions: met 100 mg/l, XAD4, 24 hours at 30° C.
Protocol: as §3

C. glutamicum M2014 [7] = test: Test tube growth in methionine-free medium with mineral oil as DMDS delivery system; conditions: MF + Met 100 mg/l, no oil, 24 hours at 30° C.
Text: (§4) Other possible delivery systems include synthetic oils, organic solvents, chloro-carbons, fluoro-carbons, or chloro-fluoro-carbons.

[8] = test system: C. glutamicum OM246C (ΔmetH, ΔmetE); conditions: OM246C, 24 hours at 30° C.
Text: as §4

C. glutamicum M2014 [9] = test: Test tube growth in methionine-free medium with canola oil as DMDS delivery system; format: cell-based; conditions: 24 hours at 30° C.
Text: as §4

[10] = test system: C. glutamicum OM246C (ΔmetH, ΔmetE); format: cell-based; conditions: 24 hours at 30° C.
Text: as §4

[11] = test system: C. glutamicum OM158 (ΔmetF, ΔmetY); conditions: Met 100 mg/ml, XAD4, 60 hours at 30° C.
Protocol: (§5) A test tube experiment was performed with M2014 derivatives that contain different combinations of deletions of metY, metB, and metF. […] The inoculum was approximately 5×10^3 cells per tube. Cells were grown at 30° C. in a platform shaker for 60 hours, and cell densities were measured at OD600.

[12] = test system: C. glutamicum OM101 (ΔmetF, ΔmetB); conditions: Met 100 mg/ml, XAD4, 60 hours at 30° C.
Protocol: as §5

[13] = test system: C. glutamicum OM174 (ΔmetF, ΔmetB, ΔmetY); conditions: Met 100 mg/ml, XAD4, 60 hours at 30° C.
Protocol: as §5

microorganisms = conditions: gaseous state; cited from earlier work

CSCC[C@H](N)C(=O)O [Met, methionine, reference compound]
Optical densities at 600 nm [1]: 5.8 | Optical densities at 600 nm [2]: 5.2 | Optical densities at 600 nm (C. glutamicum M2014 [3]; Met 40 mg/l, 42 hours at 30° C.): 7.1 | OD600 (C. glutamicum M2014 [3]; Met 100 mg/ml, 60 hours at 30° C.): 2.2 and 2.3 | Optical densities at 600 nm (C. glutamicum M2014 [3]; met 100 mg/l, 24 hours at 30° C.): 4.4 and 4.7 | Optical densities at 600 nm ([4]; Met 40 mg/l, XAD4, 42 hours at 30° C.): 4.4 | OD600 ([4]; Met 100 mg/ml, XAD4, 60 hours at 30° C.): 1.6 and 1.9 | Optical densities at 600 nm ([4]; met 100 mg/l, XAD4, 24 hours at 30° C.): 2.4 and 3.0 | Optical densities at 600 nm [5]: 1.9 and 2.1 | Optical densities at 600 nm [6]: 3.9 and 4.3 | Optical densities at 600 nm (C. glutamicum M2014 [7]): 4.6 and 4.8 | Optical densities at 600 nm ([8]; MF + Met 100 mg/l, no oil): 4.9 and 4.7 | Optical densities at 600 nm ([8]; MF + Met + Mineral Oil): 1.5 and 1.8 | Optical densities at 600 nm (C. glutamicum M2014 [9]; MF + Met 100 mg/l, no oil): 4.6 and 4.8 | Optical densities at 600 nm (C. glutamicum M2014 [9]; MF + Met + Canola Oil): 3.8 and 3.5 | Optical densities at 600 nm ([10]; MF + Met 100 mg/l, no oil): 4.9 and 4.7 | Optical densities at 600 nm ([10]; MF + Met + Canola Oil): 3.7 and 3.0 | OD600 [11]: 3.2 and 2.7 | OD600 [12]: 1.8 | OD600 [13]: 1.5 and 1.2

C[Se][Se]C [DMDSe, dimethyldiselenide]
toxicity to microorganisms (microorganisms): toxic to microorganisms in a gaseous state
